Patent publication US20190070170A1, “METHOD OF S[…]-1” (Macau University of Science and Technology, priority 2017, published 2019)

What was measured:
[1] = test system: PGE2; experiment: PGE2 production in LPS-stimulated RAW264.7 cells (ELISA); type: cell-based, mouse; details: SIN 160, 320 or 640 μM or 0.5 μM DEX 1 h, then LPS 100 ng/ml 18 h
Procedure: RAW264.7 and A549 cell lines were obtained from American Type Culture Collection (ATCC, Manassas, Va., USA) and maintained in DMEM (RAW264.7) or 1640 (A549) medium containing 10% FBS (Gibco-BRL, Grand Island, N.Y., USA) and antibiotics at 37° C. in a humidified atmosphere containing 5% CO2. RAW264.7 cells were plated in 6-well plates at a density of 4×10^5 cells and incubated for 24 h, then the cells were pretreated with different concentrations of SIN for 1 h before stimulating with LPS (100 ng/ml). A549 cells were seeded in 6-well plates at a density of 1×10^5 cells and incubated for 24 h, followed by pretreatment with SIN. A549 cells were then stimulated by IL-1β (1 ng/ml).
RAW264.7 cells and rat peritoneal macrophages were seeded in a 96-well plate at density of 1.4×10^4 and 1.5×10^5 cells, respectively. Various concentration of SIN was added to the cells for 1 hour before LPS stimulation. After stimulation with LPS for 18 h (RAW264.7 cells) or 24 h (rat peritoneal macrophages), MTT solution was added to each well and incubated for another 4 hours. 100 μl 10% SDS-HCl solution was added to each well for overnight to dissolve the formazan dye. The optical density was measured at 570 nm against a reference wavelength of 650 nm using a microplate UV/VIS spectrophotometer (Tecan, Mannedorf, Switzerland). […]

[2] = test system: PGI2; experiment: PGI2 level in culture supernatants of LPS-activated rat peritoneal macrophages (ELISA); type: cell-based; details: LPS-stimulated rat peritoneal macrophages, culture supernatant
Procedure: Sprague-Dawley (SD) rats from the University of Hong Kong were housed in cages with free access to food and water. Peritoneal macrophages of SD rats were isolated as described in Liu J. et al., Pharmacological research 2016, 111:303-315. Briefly, untreated rats were sacrificed and after laparotomy, about 50 ml cold sterile Hank's balanced salt solution (HBSS) was used to lavage the peritoneal cavity at twice, and then the peritoneal lavage fluid was collected and centrifuged at 1500 rpm for 10 min. The cell pellets was suspended at a density 1.5×10^6 cells/ml in pre-hearted DMEM medium with 10% heat-inactivated FBS, penicillin G (100 units/ml), streptomycin ([…]), and L-glutamine (2 mM), followed by seeding in 6-well plates at a density of 4.5×10^6 cells and incubation for 2 h. Then the medium were discarded to remove the non-adherent cells. The adherent cells were further washed for two times with pre-heated DMEM medium to remove floating cells. Next, cells were pre-treated with various concentration of SIN for 1 h, followed by stimulation with LPS (1 μg/ml).
RAW264.7 cells and rat peritoneal macrophages were seeded in a 96-well plate at density of 1.4×10^4 and 1.5×10^5 cells, respectively. […] The optical density was measured at 570 nm against a reference wavelength of 650 nm using a microplate UV/VIS spectrophotometer (Tecan, Mannedorf, Switzerland). […]

[3] = test system: mPGES-1; experiment: mPGES-1 protein expression in hind paws of CIA DBA/1 mice; type: in vivo; details: SIN 100 mg/kg i.p. or MTX 10 mg/kg/week p.o.
Procedure: (§1) Female DBA/1 mice (8-9 weeks old) were purchased from Shanghai SiLaike (SLAC) Laboratory Animal Company (Shanghai, China) and fed with a chow diet and water at room temperature. Equal volume of complete Freuend's adjuvant (CFA) and Bovine Type II Collagen (CII) were mixed and emulsified using a homogenizer (13,000 rpm) on ice. On day 0, DBA/1 mice were immunized by injecting 50 μl of CII in CFA in the tail, approximately 2 cm from the base of the tail. […] The incidence of joint swelling in each group was recorded every two days since drug treatment. […]
(§2) Frozen paws were pulverized in liquid nitrogen using a stainless steel mortar and pestle, then re-suspended in 8 volumes of ice-cold PBS from Invitrogen (San Diego, Calif., USA) with 2.6 mM DTT from Promega (Madison, Wis., USA) and 2×Complete Protease Inhibitor mixture from Roche (Mannheim, Germany), and homogenized on ice bath using a tissue homogenizer from T25 digital, IKA (Stanfen, Germany) at 10,000 rpm/min for 5 min. […] The protein concentrations were measured using a Bio-Rad protein assay kit (Hercules, Calif., USA). […]
(§3) Whole-cell and nuclear proteins were obtained using RIPA lysis buffer (CST, Boston, Mass., USA) and Nuclear and Cytoplasmic Extraction Reagents kit from Thermo Scientific (Asheville, N.C., USA), respectively. […] The levels of protein expression were measured using Odyssey v3.0 software from Li-COR (Lincoln, Nebr., USA).

[4] = test system: COX-1; experiment: COX-1 protein expression in hind paws of CIA DBA/1 mice; type: in vivo; details: SIN 100 mg/kg i.p.
Procedure: as §1, §2, §3

Structure (SMILES): COC1=C[C@@H]2[C@@H]3Cc4ccc(OC)c(O)c4[C@]2(CCN3C)CC1=O [SIN, sinomenine]
- PGE2 production [1]: significant inhibition of PGE2 production in a dose dependent manner
- level of PGI2 [2]: no significant influence
- mPGES-1 protein expression in inflamed hind paws [3]: significantly decreased
- COX-1 expression in paw tissues [4]: did not produce observable changes
